{
  "source": "patent US8828966B2",
  "about": "“Method for treatment of macular degeneration by modulating P2Y12 or P2X7 receptors” (priority 2006, dated 2014)",
  "test_system": "ARPE-19 cells",
  "assay": "Lysosomal pH (pHL) with LysoSensor Yellow/Blue, high through-put screen",
  "type": "cell-based, human",
  "conditions": "for effect on pHL of cells treated with 30 μM tamoxifen: CFTRAct16 at 10 μM; for effect on pHL of cells treated with tamoxifen: tamoxifen concentration not stated, A68930 and A77636 at 1 μM; for effect on pHL, agent alone: cells without other alkalinizing agent, NH4Cl 10 mM, BAF 200 nM, CHQ 20 μM, CFTR-172 10 μM, LDL 10 μg/ml, others not given",
  "procedure": "Lysosensor Yellow/Blue co-localized with the Lysotracker Red dye in small vesicles, with a distribution consistent with lysosomal origin. Measurements of pHL were performed using a high throughput screening (HTS) protocol to maximize output and minimize variation using ARPE-19 cells in 96 well plates. […] Loading for 5 min. at 23° C. with 5 μM lysosensor, followed by 15 min. for internalization, produced stable and reproducible results.\nThe ratio was converted to pH by calibrating with KCl buffered to pH 4.0-6.0 in the presence of monensin and nigericin. Calibration indicated a baseline pH of 4.4 to 4.5, supporting lysosomal localization. […] NH4Cl decreased the ratios slightly at 380 nm. Nevertheless, absent the addition of the dye, none of these compounds, or any others, altered the fluorescent signal at 340 or 380 nm, showing a specificity of the measured change to pHL. […] This quantification is necessary to predict the potential effectiveness of acidifying drugs to restore lysosomal enzyme activity.\nExtensive trials determined that the optimal response is obtained with 5 minute dye loading and 15 minute post-incubation. […] All reagents were from Sigma Chemical Corp. unless otherwise indicated.\nIn general, each condition below used 3-12 independent wells per plate, in 3-6 separate plates. As levels from individual plates varied, data was normalized to the mean pHL for control wells from each plate. Fluorescent ratios were converted to pH following calibration performed on each plate as described. Incubation with Lysosensor Yellow/Blue was kept constant and all measurements were performed 15 min after removal of dye from the bath to ensure continuity. Significance was determined with a one-way ANOVA and Tukey post test. Drugs were always tested on control cells to ensure modification of healthy RPE cells was minimal, and cells were not exposed to dye to make sure effects were specific. All background was subtracted from the fluorescence excited at 340 and 380 nm independently before calculation of the ratio.",
  "data": [
    {"smiles": "Nc1ncnc2c1nc(Sc1ccc(Cl)cc1)n2[C@@H]1O[C@@H]2COP(=O)([O-])O[C@H]2[C@H]1O.[Na+]", "note": "[cpt-cAMP, 8-(4-chlorophenylthio) adenosine-3′,5′-cyclic monophosphate]", "values": [
      {"measurement": "effect on pHL of cells treated with 10 μM tamoxifen", "result": "significantly decreased pHL"},
      {"measurement": "effect on pHL of cells treated with 30 μM tamoxifen", "result": "significantly decreased pHL"}
    ]},
    {"smiles": "CC(C)(C)NC[C@H](O)COc1nsnc1N1CCOCC1", "note": "[timolol]", "values": [
      {"measurement": "effect on pHL of cells treated with 30 μM tamoxifen", "result": "did not lower pHL"},
      {"measurement": "effect on the reduction of pHL triggered by norepinephrine", "setting": "cells treated with tamoxifen plus norepinephrine", "result": "blocked"}
    ]},
    {"smiles": "OC[C@H]1O[C@@H](n2cnc3c(NC4CC5CCC4C5)ncnc32)[C@H](O)[C@@H]1O", "note": "(stereo partly drawn) [ENBA, (2S)-N^6-[2-endo-norbornyl]adenosine]", "values": [
      {"measurement": "effect on pHL of cells treated with tamoxifen", "result": "had no effect"}
    ]},
    {"smiles": "O=C(O)c1cc([N+](=O)[O-])ccc1NCCCc1ccccc1", "note": "[NPPB, 5-nitro-2-(3-phenylpropylamino)-benzoate]", "values": [
      {"measurement": "effect on pHL of cells treated with tamoxifen", "result": "reversed"}
    ]},
    {"smiles": "C[C@]12CC[C@@H]3c4ccc(O)cc4CC[C@H]3[C@@H]1CC[C@@H]2O", "note": "[17-β estradiol]", "values": [
      {"measurement": "effect on pHL of cells treated with tamoxifen", "result": "neither mimicked, nor inhibited"}
    ]},
    {"smiles": "CCN[C@H]1C[C@H](C)S(=O)(=O)c2sc(S(N)(=O)=O)cc21", "note": "[dorzolamide]", "values": [
      {"measurement": "effect on pHL of cells treated with 30 μM tamoxifen", "result": "did not lower pHL"}
    ]},
    {"smiles": "COc1ccc(Cl)cc1C(=O)NCCc1ccc(S(=O)(=O)NC(=O)NC2CCCCC2)cc1", "note": "[glybenclamide]", "values": [
      {"measurement": "effect on pHL, agent alone", "result": "smaller effects"},
      {"measurement": "effect on pHL of cells treated with tamoxifen", "result": "increased pHL"}
    ]},
    {"smiles": "CC(C)NCC(O)c1ccc(O)c(O)c1", "note": "(stereo not drawn) [isoproterenol]", "values": [
      {"measurement": "effect on pHL of cells treated with tamoxifen", "result": "significantly decrease pHL"}
    ]},
    {"smiles": "NC[C@H](O)c1ccc(O)c(O)c1", "note": "[norepinephrine]", "values": [
      {"measurement": "effect on pHL of cells treated with chloroquine", "setting": "chloroquine (20 μM with CGS21680 100 nM)", "result": "reduced pHL"},
      {"measurement": "effect on pHL of cells treated with tamoxifen", "result": "significantly decrease pHL"}
    ]},
    {"smiles": "CNC[C@H](O)c1ccc(O)c(O)c1", "note": "[epinephrine]", "values": [
      {"measurement": "effect on pHL of cells treated with tamoxifen", "result": "significantly decrease pHL"}
    ]},
    {"smiles": "CNC[C@H](O)c1cccc(O)c1", "note": "[phenylephrine]", "values": [
      {"measurement": "effect on pHL of cells treated with tamoxifen", "result": "no significant effect on pHL"}
    ]},
    {"smiles": "CSc1nc(N)c2ncn([C@@H]3O[C@H](COP(=O)(O)OP(=O)(O)O)[C@@H](O)[C@H]3O)c2n1", "note": "[MeSADP]", "values": [
      {"measurement": "effect on pHL, agent alone", "result": "elevated the lysosomal pHL"}
    ]},
    {"smiles": "CN[C@@H]1C[C@H]2O[C@@](C)([C@@H]1OC)n1c3ccccc3c3c4c(c5c6ccccc6n2c5c31)C(=O)NC4", "note": "[staurosporine]", "values": [
      {"measurement": "effect on pHL of cells treated with tamoxifen", "result": "decrease in lysosomal pH"}
    ]},
    {"smiles": "CO/C1=C\\C(C)=C\\[C@@H](C)[C@@H](O)[C@@H](C)C/C(C)=C/C=C/[C@H](OC)[C@@H]([C@@H](C)[C@@H](O)[C@H](C)[C@@]2(O)C[C@@H](O)[C@H](C)[C@@H](C(C)C)O2)OC1=O", "note": "[bafilomycin-A]", "values": [
      {"measurement": "effect on pHL, agent alone", "result": "pH was elevated"}
    ]},
    {"smiles": "Nc1ncnc2c1nc(Br)n2[C@@H]1O[C@@H]2COP(=O)(O)O[C@H]2[C@H]1O", "note": "[8-Br-cAMP, 8-bromo-adenosine 3′,5′-cyclic monophosphate]", "values": [
      {"measurement": "effect on pHL of cells treated with 10 μM tamoxifen", "result": "not significant"}
    ]},
    {"smiles": "OC[C@H]1O[C@@H](n2cnc3c(NC4CCCC4)ncnc32)[C@H](O)[C@@H]1O", "note": "[CPA, N^6-cyclopentyl-adenosine]", "values": [
      {"measurement": "effect on pHL of cells treated with tamoxifen", "result": "had no effect"}
    ]},
    {"smiles": "O=c1c(-c2ccc(O)cc2)coc2cc(O)cc(O)c12", "note": "[genistein]", "values": [
      {"measurement": "effect on pHL, agent alone", "result": "smaller effects"},
      {"measurement": "effect on pHL of cells treated with tamoxifen", "result": "acidified lysosomes"}
    ]},
    {"smiles": "O=C(O)c1ccc(/C=C2\\SC(=S)N(c3cccc(C(F)(F)F)c3)C2=O)cc1", "note": "[CFTR-172]", "values": [
      {"measurement": "effect on pHL, agent alone", "result": "increased lysosomal pH"}
    ]},
    {"smiles": "CC(C)OC(=O)CCC/C=C\\C[C@@H]1[C@@H](CC[C@@H](O)CCc2ccccc2)[C@H](O)C[C@@H]1O", "note": "[latanaprost]", "values": [
      {"measurement": "effect on pHL of cells treated with 30 μM tamoxifen", "result": "did not lower pHL"}
    ]}
  ]
}
